Patent US20070218462A1, “Method of Predicting a Benefit of Antioxidant Therapy for Prevention of Cardiovascular Disease in Hiperglycemic Patients” (priority 2003, published 2007)
“Also recorded” adds a separate entry of the source.

How the values were obtained:
[1] = system: unselected samples or Diabetic patients; experiment: CVD outcomes and Vitamin C supplementation (data not shown); assay type: in vivo, human
[2] = system: patients at high risk of cardiovascular events; experiment: HOPE study: relative risk of primary CV outcomes with vitamin E or ramipril, by haptoglobin phenotype; assay type: in vivo, human
From the text: HOPE study and patient characteristics: The Heart Outcomes Prevention Evaluation (HOPE) study was designed to test the hypotheses that two preventive intervention strategies, namely angiotensin-converting enzyme (ACE) inhibition or vitamin E, would improve morbidity and mortality in patients at high risk of cardiovascular events compared with placebo. Patients were included in the study who were considered to be at high risk of future fatal or non-fatal cardiovascular events, by virtue of their age (>55 years), existing or previous cardiovascular disease, or diabetes. Diabetics had at least one other risk factor, either known vascular disease or other factors such as cigarette smoking, high cholesterol or hypertension. Ramipril or placebo was added to concomitant medication, which included, in a substantial proportion of patients, antihypertensive drugs (excluding ACE-I), lipid-lowering agents or aspirin. The HOPE study design and protocols have been previously described in detail (see, for example, The Heart Outcomes Prevention Evaluation Study Investigators NE J Med, 2000; 342:154-60 and […] Angioten Aldost Sys 2000;1:18-20). Briefly, the study population consisted over 9,451 patients at high risk of CVD (3,654 DM). […] Patients were followed for a mean of 4.5 years. The primary study outcome was the composite of non-fatal MI, stroke or cardiovascular death. For samples from the HOPE Study, haptoglobin phenotyping was performed from 10 ul of plasma by polyacrylamide gel electrophoresis according to established methods (Hochberg I et al Atherosclerosis 2002;161:441-446). A signature banding pattern is obtained from individuals who are homozygous for the 1 allele (Hp 1-1), homozygous for the 2 allele (Hp 2-2) or who are heterozygous at the haptoglobin locus (Hp 2-1). We have established 100% concordance between the haptoglobin phenotype as determined from plasma and the haptoglobin genotype as determined from genomic DNA by the polymerase chain reaction (Koch W, et al Clin Chem 2002; 277:13635-40). An unambiguous haptoglobin phenotype was obtained on greater than 99.6% of all samples assayed. Haptoglobin phenotyping was performed with no knowledge of the patients clinical or treatment status. All analyses of the HOPE Study data were carried out using SAS 6.02. Baseline characteristics of patients according to haptoglobin were compared by t tests or χ^2 tests as appropriate. […] Patient characteristics of HOPE samples undergoing haptoglobin phenotyping: Haptoglobin phenotype was obtained on 3176 patients (1078 diabetics) from the origianl HOPE cohort for whom plasma was originally archived. These patients represented a randomly selected consecutive series of cohort according to CVD risk factors and treatment regimen is shown in Table 4 below.

[3] = system: patients at high risk of cardiovascular events; conditions: daily administration of 400 IU for 4.5 years; original HOPE study report; cited from earlier work
[4] = All patients, Hp 1-1, with vitamin E vs without vitamin E
[5] = All patients, Hp 2-1, with vitamin E vs without vitamin E
[6] = All patients, Hp 2-2, with vitamin E vs without vitamin E
[7] = DM Patients only, Hp 1-1, with vitamin E vs without vitamin E
[8] = DM Patients only, Hp 2-1, with vitamin E vs without vitamin E
[9] = DM Patients only, Hp 2-2, with vitamin E vs without vitamin E
[10] = entire sample, regardless of haptoglobin type
[11] = All patients, Hp 1-1, with ramipril vs without ramipril
[12] = All patients, Hp 2-1, with ramipril vs without ramipril
[13] = All patients, Hp 2-2, with ramipril vs without ramipril
[14] = DM Patients only, Hp 1-1, with ramipril vs without ramipril
[15] = DM Patients only, Hp 2-1, with ramipril vs without ramipril
[16] = DM Patients only, Hp 2-2, with ramipril vs without ramipril

O=C1O[C@H]([C@@H](O)CO)C(O)=C1O [Vitamin C]
correlation between CVD outcomes and Vitamin C supplementation [1]: no correlation could be found

CC(=O)Oc1c(C)c(C)c2c(c1C)CC[C@@](C)(CCC[C@H](C)CCC[C@H](C)CCCC(C)C)O2 [Vitamin E, RRR-a-tocophorol acetate]
Relative Risk Ratio, CV death (95% CI) [2, 4]: 1.10 (0.56-2.12) | Relative Risk Ratio, MI (95% CI) [2, 4]: 0.79 (0.47-1.33) | Relative Risk Ratio, Primary (95% CI) [2, 4]: 0.97 (0.63-1.50) | Relative Risk Ratio, Stroke (95% CI) [2, 4]: 1.50 (0.56-4.04) | Relative Risk Ratio, CV death (95% CI) [2, 5]: 1.07 (0.69-1.64) | Relative Risk Ratio, MI (95% CI) [2, 5]: 1.02 (0.75-1.38) | Relative Risk Ratio, Primary (95% CI) [2, 5]: 0.96 (0.74-1.25) | Relative Risk Ratio, Stroke (95% CI) [2, 5]: 0.92 (0.53-1.60) | Relative Risk Ratio, CV death (95% CI) [2, 6]: 0.75 (0.48-1.16) | Relative Risk Ratio, MI (95% CI) [2, 6]: 0.94 (0.68-1.30) | Relative Risk Ratio, Primary (95% CI) [2, 6]: 0.92 (0.69-1.22) | Relative Risk Ratio, Stroke (95% CI) [2, 6]: 0.85 (0.46-1.57) | Relative Risk Ratio, CV death (95% CI) [2, 7]: 0.64 (0.21-1.92) | Relative Risk Ratio, MI (95% CI) [2, 7]: 0.83 (0.33-2.06) | Relative Risk Ratio, Primary (95% CI) [2, 7]: 0.84 (0.40-1.79) | Relative Risk Ratio, Stroke (95% CI) [2, 7]: 2.24 (0.41-12.4) | Relative Risk Ratio, CV death (95% CI) [2, 8]: 1.0 (0.53-1.93) | Relative Risk Ratio, MI (95% CI) [2, 8]: 0.99 (0.45-2.18) | Relative Risk Ratio, Primary (95% CI) [2, 8]: 1.08 (0.72-1.61) | Relative Risk Ratio, Stroke (95% CI) [2, 8]: 0.99 (0.45-2.18) | Relative Risk Ratio, CV death (95% CI) [2, 9]: 0.45 (0.23-0.90) | Relative Risk Ratio, MI (95% CI) [2, 9]: 0.57 (0.33-0.97) | Relative Risk Ratio, Primary (95% CI) [2, 9]: 0.70 (0.45-1.10) | Relative Risk Ratio, Stroke (95% CI) [2, 9]: 1.15 (0.47-2.82) | benefit of vitamin E therapy for any of the primary CV outcomes ([2]; DM patients, other haptoglobin phenotypes (Hp 1-1 and Hp 2-1)): no significant benefit | benefit of vitamin E supplementation for any of the primary CV outcomes [2, 10]: no significant benefit | benefit of vitamin E supplementation ([2]; unselected DM group): no significant benefit; also recorded: no apparent benefit | clinical benefit on cardiovascular (CV) outcomes [3]: failed to demonstrate any clinical benefit

CCOC(=O)[C@H](CCc1ccccc1)N[C@@H](C)C(=O)N1[C@H](C(=O)O)C[C@@H]2CCC[C@@H]21 [Ramipril, ramipril]
Relative Risk Ratio, CV death (95% CI) [2, 11]: 0.58 (0.29-1.18) | Relative Risk Ratio, MI (95% CI) [2, 11]: 0.61 (0.35-1.06) | Relative Risk Ratio, Primary (95% CI) [2, 11]: 0.74 (0.47-1.17) | Relative Risk Ratio, Stroke (95% CI) [2, 11]: 0.91 (0.33-2.51) | Relative Risk Ratio, CV death (95% CI) [2, 12]: 1.02 (0.66-1.58) | Relative Risk Ratio, MI (95% CI) [2, 12]: 0.88 (0.64-1.20) | Relative Risk Ratio, Primary (95% CI) [2, 12]: 0.81 (0.62-1.07) | Relative Risk Ratio, Stroke (95% CI) [2, 12]: 0.68 (0.38-1.21) | Relative Risk Ratio, CV death (95% CI) [2, 13]: 0.87 (0.55-1.37) | Relative Risk Ratio, MI (95% CI) [2, 13]: 0.83 (0.59-1.17) | Relative Risk Ratio, Primary (95% CI) [2, 13]: 0.76 (0.57-1.02) | Relative Risk Ratio, Stroke (95% CI) [2, 13]: 0.53 (0.27-1.04) | Relative Risk Ratio, CV death (95% CI) [2, 14]: 0.42 (0.13-1.36) | Relative Risk Ratio, MI (95% CI) [2, 14]: 0.53 (0.19-1.46) | Relative Risk Ratio, Primary (95% CI) [2, 14]: 0.78 (0.35-1.75) | Relative Risk Ratio, Stroke (95% CI) [2, 14]: 1.29 (0.21-7.82) | Relative Risk Ratio, CV death (95% CI) [2, 15]: 0.97 (0.50-1.88) | Relative Risk Ratio, MI (95% CI) [2, 15]: 0.99 (0.81-2.13) | Relative Risk Ratio, Primary (95% CI) [2, 15]: 0.97 (0.72-1.61) | Relative Risk Ratio, Stroke (95% CI) [2, 15]: 0.58 (0.25-1.34) | Relative Risk Ratio, CV death (95% CI) [2, 16]: 0.56 (0.28-1.12) | Relative Risk Ratio, MI (95% CI) [2, 16]: 0.57 (0.38-1.12) | Relative Risk Ratio, Primary (95% CI) [2, 16]: 0.57 (0.36-0.90) | Relative Risk Ratio, Stroke (95% CI) [2, 16]: 0.42 (0.16-1.09) | benefit of ramipril supplementation for any of the primary CV outcomes [2, 10]: no significant benefit | benefit to ramipril for any of the primary CV outcomes ([2]; other haptoglobin phenotypes (Hp 1-1, Hp 1-2)): no benefit | benefit of ramipril supplementation ([2]; unselected DM group): no significant benefit
